Measurements: ChEMBL document CHEMBL1833928, “Metabolism evaluation of the anticancer candidate AC04 by biomimetic oxidative model and rat liver microsomes” (Eur J Med Chem, 2011)

Experiments:
[1] = system: Liver microsomes; test: Drug metabolism in Wistar rat liver microsomes assessed as 1-oxo-AC04 after 60 mins by LC-MS/MS analysis; assay type: ADME, Microsome; conditions: 1 h
[2] = system: Plasma; test: Drug metabolism in Wistar rat plasma assessed as 1-oxo-AC04 at 1.5 mg/kg, iv administered as single dose after 120 hrs by LC-MS/MS analysis; assay type: ADME, organism-based; parameters: dose 1.5 mg/kg, route intravenous; conditions: in vivo
[3] = system: CCRF S-180; test: Antitumor activity against mouse S180 cells xenografted in mouse assessed as reduction of tumor weight at 100 umol/kg/day, ip administered after 48 hrs of tumor inoculation qd for 8 days; assay type: functional; parameters: scale not given: the % may be the effect or the level left

With `Cc1ccc(CN2C(=O)S/C(=C\c3c4ccccc4nc4ccccc34)C2=O)cc1` the Drug metabolism [1] was “Active”, the Drug metabolism [2] was “Active” and the Activity [3] was 85%.
